Experimental data: patent publication US20240327401A1, “FUSED RING COMPOUND, PHARMACEUTICAL COMPOSITION, AND APPLICATION THEREOF” (EVOPOINT BIOSCIENCES CO., LTD., priority 2021, published 2024)

Legend:
[1] = test system: ERK phosphorylation in DLD-1 cells; test: In-cell Western blot assay for ERK phosphorylation in DLD-1 cells; assay type: cell-based; conditions: Homo sapiens, p-ERK signal corrected using DMSO and BI-3406, four-parameter fit
Experimental: Efficacy Example 1: In-cell Western Blot Assay for ERK Phosphorylation in DLD-1 Cells
DLD-1 cells (ATCC, CCL-221) were thawed and cultured in a culture medium containing RPMI1640 (Gibco, A10491-01), 10% fetal bovine serum (FBS) (Transgene, FS201-02) and 1% antibiotic P/S (Gibco, 15140-122) for 3 days until the cell viability was good. The cells were inoculated into a 384-well plate and incubated at 37° C. with 5% CO2 overnight. A test compound, a positive control compound, and a negative control were added. The compound was at concentrations of 10000 nM to 1.52 nM (3-fold dilution) and […], for a total of 10 concentrations. The mixture was well mixed and incubated at 37° C. with 5% CO2. The cells were washed twice with PBS (Solarbio, P1010), and then a blocking buffer was added. After 1 h of blocking at room temperature, a primary antibody mixture (phospho-p44/42 MAPK (T202/Y204) Rabbit mAb (CST, […]), GAPDH (D4C6R) Mouse mAb) (CST, 97166S) was added, followed by overnight incubation at 4° C. The cells were washed 3 times with PBST (PBS containing 0.05% Tween-20 (Solarbio, T8220)), and a secondary antibody mixture (goat anti rabbit 800CW (LI-COR, 926-32211), goat anti mouse 680RD (LI-COR, 926-68070)) was added, followed by incubation at room temperature in the dark. The 384-well plate was reversed and centrifuged at 1000 rpm for 1 min, and read on an Odyssey CLx fluorescence imaging system (LI-COR) to obtain fluorescence signal values, which were corrected using DMSO and BI-3406.
[formula] • H=Ave (DMSO) • L=Ave (BI-3406) • SD (H)=STDEV (DMSO) • SD (L)=STDEV (BI-3406)
The IC50 values of the compounds were calculated using a four-parameter fitting algorithm, specifically as follows:
[formula] • X: Log of cpd concentration • Y: Ave (relative pERK) • Top and Bottom: Plateaus in same units as Y • log IC50: same log units as X • HillSlope: Slope factor or Hill slope.

[2] = molecular target: T1, SOS1/KRAS G12C protein binding (Homo sapiens, UniProt Q07889); test: Inhibition of SOS1/KRAS G12C protein binding (665 nm/615 nm ratio); conditions: 15 nM KRAS G12C (aa 1-169), 2.5 nM His-SOS1 (aa 564-1049); nonlinear regression
T1 construct: His-SOS1 (aa 564-1049) protein; purchased Pharmaron Beijing Co., Ltd. 20200717 (His-SOS1); 20200707 (KRAS G12C)
T1 sequence (Q07889 564-1049): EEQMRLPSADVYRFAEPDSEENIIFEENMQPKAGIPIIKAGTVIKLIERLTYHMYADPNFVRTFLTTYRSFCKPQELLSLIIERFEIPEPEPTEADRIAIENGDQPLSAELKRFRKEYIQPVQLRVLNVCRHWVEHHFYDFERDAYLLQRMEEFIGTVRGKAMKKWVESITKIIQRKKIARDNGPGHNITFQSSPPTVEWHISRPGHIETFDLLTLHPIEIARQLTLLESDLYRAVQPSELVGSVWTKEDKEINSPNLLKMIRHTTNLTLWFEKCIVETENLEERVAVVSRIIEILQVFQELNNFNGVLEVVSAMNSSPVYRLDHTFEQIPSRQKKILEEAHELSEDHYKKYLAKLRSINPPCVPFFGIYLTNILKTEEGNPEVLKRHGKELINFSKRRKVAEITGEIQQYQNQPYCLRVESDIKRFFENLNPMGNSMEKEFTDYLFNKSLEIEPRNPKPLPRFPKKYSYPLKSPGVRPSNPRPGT
Experimental: Efficacy Example 2: Evaluation of Inhibition of SOS1/KRAS G12C Protein Binding
A test compound was dissolved in 100% DMSO to give a solution at a concentration of 10 mM. 10 μL of the solution was taken and 3-fold diluted with 100% DMSO to prepare test compound solutions with concentrations of 10000 nM to […], for a total of 11 concentrations. The compound solutions at different concentrations were then transferred to a 384-well plate at 0.1 μL/well using a sonic droplet device Echo (Labcyte), and 2 replicate wells were set for each concentration.
A 15 nM KRAS G12C (aa 1-169) protein (Pharmaron Beijing Co., Ltd., 20200707) was transferred to the 384-well reaction plate at 5 μL/well using the sonic droplet device Echo (Labcyte), and then the reaction plate was centrifuged in a centrifuge (Eppendorf, 5810R) at 1000 rpm/min for 1 min.
A 2.5 nM His-SOS1 (aa 564-1049) protein (Pharmaron Beijing Co., Ltd., 20200717) was transferred to the 384-well reaction plate at 5 μL/well using the sonic droplet device Echo (Labcyte), and then the reaction plate was centrifuged in a centrifuge (Eppendorf, 5810R) at 1000 rpm/min for 1 min and incubated at 25° C. for 15 min.
A mixed solution of Antibody 1 (MAb Anti-6his-Tb cryptate Gold, Cisbio, 61HI2TLA) and Antibody 2 (MAb Anti-GST-XL665, Cisbio, 61GSTXLA) was transferred to the 384-well reaction plate at 10 μL/well using the sonic droplet device Echo (Labcyte), and then the reaction plate was centrifuged in a centrifuge (Eppendorf, 5810R) at 1000 rpm/min for 1 min and incubated at 25° C. for 120 min.
The 665 nm/615 nm optical density ratio was read using an Envision multifunctional microplate reader (Perkin Elmer, Envision 2104).
Analysis of Original Data:
The IC50 values of the compounds were fitted by a nonlinear regression equation of Graphpad Prism 8. The results are shown in Table 2: • Negative control: DMSO
The IC50 (half maximal inhibitory concentration) values of the compounds were calculated using the following non-linear fitting equation:
[formula] • X: Log of cpd concentration • Y: 665 nm/615 nm ratio

SMILES | IC50 [1] [nM] | IC50 [2] [nM]
COc1c(=O)n(C2(C(F)F)CC2)cc2c(N[C@H](C)c3cccc(C(F)F)c3F)nc(C)nc12 [SZ-022244] | 265 | 17.8
Cc1nc(N[C@H](C)c2cccc(C(F)F)c2F)c2cn(C3(C(F)F)CC3)c(=O)c(N(C)C)c2n1 [SZ-022251] | 146 | –
[2H]C([2H])([2H])Oc1c(=O)n(C2(C(F)F)CC2)cc2c(N[C@H](C)c3cccc(C(F)F)c3F)nc(C)nc12 [SZ-022295] | 256 | 8.15
CCOc1c(=O)n(C2(C(F)F)CC2)cc2c(N[C@H](C)c3cccc(C(F)F)c3F)nc(C)nc12 [SZ-022296] | 143 | 9.43
Cc1nc(N[C@H](C)c2cccc(C(F)F)c2F)c2cn(C3(C(F)F)CC3)c(=O)c(OC3CC3)c2n1 [SZ-022299] | 751 | 22.4
COc1c(=O)n(C2(C)CC2)cc2c(N[C@H](C)c3cccc(C(F)F)c3F)nc(C)nc12 [SZ-022300] | 412 | 12.1
COc1c(=O)n(C2(CF)CC2)cc2c(N[C@H](C)c3cccc(C(F)F)c3F)nc(C)nc12 [SZ-022301] | 262 | 6.5
COc1c(=O)n(C2(C(F)F)CC2)cc2c(N[C@H](C)c3cccc(C(F)F)c3C)nc(C)nc12 [SZ-022302] | 104 | 3.79
COc1c(=O)n(C2(C(F)F)CC2)cc2c(N[C@H](C)c3cccc(C(C)(F)F)c3F)nc(C)nc12 [SZ-022303] | 128 | 9.77
COc1c(=O)n(C2(C(F)F)CC2)cc2c(N[C@H](C)c3cccc(C(F)(F)F)c3C)nc(C)nc12 [SZ-022304] | 79 | 6.98
CSc1c(=O)n(C2(C(F)F)CC2)cc2c(N[C@H](C)c3cccc(C(F)F)c3F)nc(C)nc12 [SZ-022306] | 213 | 12.5
Cc1nc(N[C@H](C)c2cccc(C(F)F)c2F)c2cn(C3(C(F)F)CC3)c(=O)c(S(C)(=O)=O)c2n1 [SZ-022307] | 253 | 25.9
Cc1nc(N[C@H](C)c2cccc(C(F)F)c2F)c2cn(C3(C(F)F)CC3)c(=O)c(OCC(F)(F)F)c2n1 [SZ-022312] | 601 | 17.9
Cc1nc(N[C@H](C)c2cccc(C(F)F)c2F)c2cn(C3(C(F)F)CC3)c(=O)c(OC(C)C)c2n1 [SZ-022313] | 1270 | 44
Cc1nc(N[C@H](C)c2cccc(C(F)F)c2F)c2cn(C3(C(F)F)CC3)c(=O)c(OCC3CC3)c2n1 [SZ-022314] | 563 | 17.3
COc1c(=O)n(C2(C(F)F)CC2)cc2c(N[C@H](C)c3cccc(C(F)(F)C(C)(C)O)c3F)nc(C)nc12 [SZ-022317] | 371 | 4.54
COc1c(=O)n(C2(C(F)(F)F)CC2)cc2c(N[C@H](C)c3cccc(C(F)F)c3F)nc(C)nc12 [SZ-022325] | 216 | 15.9
COc1c(=O)n(C2CCOCC2)cc2c(N[C@H](C)c3cccc(C(F)F)c3F)nc(C)nc12 [SZ-022326] | – | 10.5
COc1c(=O)n(C2(C(F)F)CC2)cc2c(N[C@H](C)c3cc(N)cc(C(F)(F)F)c3)nc(C)nc12 [SZ-022327] | 153 | 5.04

SMILES | IC50 [1] [nM] | IC50 [2] [nM]
COc1c(=O)n(C2(C)CCOC2)cc2c(N[C@H](C)c3cccc(C(F)F)c3F)nc(C)nc12 (some centres unmarked) [SZ-022328] | 309 | 9.7
COc1c(=O)n(C2(C(F)F)CC2)cc2c(N[C@H](C)c3cccc(C(F)(F)CO)c3F)nc(C)nc12 [SZ-022329] | 417 | 2.63
COc1c(=O)n(C2(C(F)F)CC2)cc2c(N[C@H](C)c3cccc4c(F)coc34)nc(C)nc12 [SZ-022330B] | 400 | 9.99
COc1c(=O)n(C2(C(F)F)CC2)cc2c(N[C@H](C)c3cccc4c3OCC4(F)F)nc(C)nc12 [SZ-022330] | 117 | 5.02
COc1c(=O)n(C2CCN(C(=O)C3CC3)CC2)cc2c(N[C@H](C)c3cccc(C(F)F)c3F)nc(C)nc12 [SZ-022335] | – | 27.9
COc1c(=O)n(C2CC(F)(F)C2)cc2c(N[C@H](C)c3cccc(C(F)F)c3F)nc(C)nc12 [SZ-022336] | – | 36.5
CCOc1c(=O)n(C2(C(F)F)CC2)cc2c(N[C@H](C)c3cccc(C(F)F)c3C)nc(C)nc12 [SZ-022337] | 174 | 4.14
CCOc1c(=O)n(C2(C(F)F)CC2)cc2c(N[C@H](C)c3cccc(C(C)(F)F)c3F)nc(C)nc12 [SZ-022338] | 334 | 12.1
CCOc1c(=O)n(C2(C(F)F)CC2)cc2c(N[C@H](C)c3cccc(C(F)(F)F)c3C)nc(C)nc12 [SZ-022339] | 186 | 7.25
CCOc1c(=O)n(C2(C(F)(F)F)CC2)cc2c(N[C@H](C)c3cccc(C(F)(F)F)c3C)nc(C)nc12 [SZ-022340] | 367 | 15.2
CCOc1c(=O)n(C2(C)CC2)cc2c(N[C@H](C)c3cccc(C(F)(F)F)c3C)nc(C)nc12 [SZ-022341] | 161 | 7.76
CCOc1c(=O)n(C2(CF)CC2)cc2c(N[C@H](C)c3cccc(C(F)(F)F)c3C)nc(C)nc12 [SZ-022342] | 57 | 7.15
CCC1(n2cc3c(N[C@H](C)c4cccc(C(F)F)c4F)nc(C)nc3c(OC)c2=O)CC1 [SZ-022343] | – | 26.7
COc1c(=O)n(C2(C#N)CC2)cc2c(N[C@H](C)c3cccc(C(F)F)c3F)nc(C)nc12 [SZ-022344] | – | 23.7
COc1c(=O)n(C23CC(C2)C3)cc2c(N[C@H](C)c3cccc(C(F)F)c3F)nc(C)nc12 [SZ-022345] | 885 | 21.8
COCC1(n2cc3c(N[C@H](C)c4cccc(C(F)F)c4F)nc(C)nc3c(OC)c2=O)CC1 [SZ-022346] | 1020 | 30
COc1c(=O)n(C2(CO)CC2)cc2c(N[C@H](C)c3cccc(C(F)F)c3F)nc(C)nc12 [SZ-022347] | – | 60.1
COc1c(=O)n(C2(C(F)F)CC2)cc2c(N[C@H](C)c3cccc(C(F)(F)F)c3)nc(C)nc12 [SZ-022348] | 614 | 21.8
CCS(=O)(=O)c1c(=O)n(C2(C(F)F)CC2)cc2c(N[C@H](C)c3cccc(C(F)F)c3F)nc(C)nc12 [SZ-022372] | – | 36.6
